Measured values published in patent US6500934B1, “Bivalent agonists for G-protein coupled receptors” (priority 1996, dated 2002).

What was measured:
α-MSH receptor [1] = assay: Frog melanocyte assay, pigment dispersion (agonist mode) in wild type melanophores; type: cell-based, Xenopus laevis; conditions: for EC50: FIG. 4; for pigment dispersion (result in words): α-MSH-ANT dimer: at higher concentrations (FIG. 6)
Protocol: Frog Melanocyte Assay. Xenopus laevis melanophores were maintained in culture as described by M. Engel et al., Biochemistry 30, 3161-3169 (1991); C. A. Slate et al., Int. J. Peptide Protein Res. 45, 290-298 (1995); and C. Plank et al., J. Biol. Chem. 269, 12918-12924 (1994). Transient expression of bombesin receptor plasmid DNA (pJG3.6BR) in melanophores was achieved by electroporation (C. A. Slate et al., Int. J. Peptide Protein Res. 45, 290-298 (1995)). Melanophores were plated (15,000 per well) on 96 well tissue culture plates (Falcon), and time and dose-response curves were obtained by microtiter plate assays (R. Duncan et al., Clin. Pharmacokinet. 27, 290-306 (1994); M. Engel et al., Biochemistry 30, 3161-3169 (1991); C. A. Slate et al., Int. J. Peptide Protein Res. 45, 290-298 (1995); C. Plank et al., J. Biol. Chem. 269, 12918-12924 (1994); and P. M. Conn et al., Endocrinology 111, 335-337 (1982)). Prior to addition of monomers or dimers, cells were washed and then incubated for one hour with 0.7× L15 media supplemented with 1 nM melatonin. […] Monomers or dimers were added to the microtiter wells in 20 μl aliquots at 10 times their final concentration. For IC50 curves, the media also was supplemented with 5 nM α-MSH.
(§1) Phototransmission was measured at 620 nm using a 340 ATTC microtiter plate reader (SLT Lab Instruments). Transmission readings were taken 1 hour following the addition of melatonin (Ti), and monomers or dimers were added immediately. Additional readings (Tf) were made at various time points (5-60 min). Data was curve fitted by nonlinear regression with y=1−(Tf/Ti). The final data was normalized and expressed as a percentage of maximal pigment dispersion (ymax).
For this study, a rapid, functional assay for G-protein-coupled receptors in frog melanophore cells (C. K. Jayawickreme et al., J. Biol. Chem. 269, 29846-29854 (1994); M. N. Potenza et al., Anal. Biochem. 206, 315-322 (1992); G. F. Graminski et al., J. Biol. Chem. 268, 5957-5964 (1993); S. Karne et al., J. Biol. Chem. 268, 19126-19133 (1993); and C. K. Jayawickreme et al., Proc. Natl. Acad. Sci. USA 91, 1614-1618 (1994)) was used. In frog melanocyte cells, ligands like α-MSH that mediate increases in cellular cyclic AMP levels, or like endothelin 3 that stimulate PI metabolism (S. Karne et al., J. Biol. Chem. 268, 19126-19133 (1993)), cause pigment dispersion and cell darkening, whereas inhibitors of cyclic AMP synthesis, like melatonin, cause pigment aggregation and cell lightening. In this study, the effect of monomeric and dimeric peptides on pigment dispersion was determined.
Wild type melanophores were used for assays involving α-MSH and α-MSH-ANT monomers and dimers. Melanophores that were transfected with a plasmid that contained the bombesin receptor coding region were used for assays involving bombesin monomer and dimer (G. F. Graminski et al., J. Biol. Chem. 268, 5957-5964 (1993); and C. K. Jayawickreme et al., Proc. Natl. Acad. Sci. USA 91, 1614-1618 (1994)).

α-MSH receptor [2] = assay: Frog melanocyte assay, inhibition of α-MSH (5 nM) mediated pigment dispersion in wild type melanophores; type: cell-based, Xenopus laevis; conditions: 5 nM α-MSH, t=30 min, FIG. 5
Protocol: Frog Melanocyte Assay. Xenopus laevis melanophores were maintained in culture as described by M. Engel et al., Biochemistry 30, 3161-3169 (1991); C. A. Slate et al., Int. J. Peptide Protein Res. 45, 290-298 (1995); and C. Plank et al., J. Biol. Chem. 269, 12918-12924 (1994). Transient expression of bombesin receptor plasmid DNA (pJG3.6BR) in melanophores was achieved by electroporation (C. A. Slate et al., Int. J. Peptide Protein Res. 45, 290-298 (1995)). […]
as §1, with “Data was curve fitted by nonlinear regression with y=1−(Tf/Ti).” left out
For this study, a rapid, functional assay for G-protein-coupled receptors in frog melanophore cells (C. K. Jayawickreme et al., J. Biol. Chem. 269, 29846-29854 (1994); M. N. Potenza et al., Anal. Biochem. 206, 315-322 (1992); G. F. Graminski et al., J. Biol. Chem. 268, 5957-5964 (1993); S. Karne et al., J. Biol. Chem. 268, 19126-19133 (1993); and C. K. Jayawickreme et al., Proc. Natl. Acad. Sci. USA 91, 1614-1618 (1994)) was used. […] In this study, the effect of monomeric and dimeric peptides on pigment dispersion was determined. […]

[3] = wild type melanophores, t=30 min

Substance	EC50 of dimer lower as compared to the monomer (fold) (α-MSH receptor [1]; [3])	EC50 (α-MSH receptor [1]; [3]) [nM]	pigment dispersion (result in words) (α-MSH receptor [1]; wild type melanophores)	IC50 (α-MSH receptor [2]) [nM]	stimulation of dispersion below a concentration of 1 μM (α-MSH receptor [1]; below 1 μM, absence of α-MSH)
homodimer: ligand domains SYSMEHFRWGKPV-, spacer GGG-εAhx, K(20), two disulfide-linked cysteines end capped at C-termini with β-alanine [α-MSH dimer]	approximately 5 fold	72.5 ± 5	stimulated dispersion in a time and dose-dependent manner		
MPdFRdWFKPV-GGGεAhx-K(20)-βAla [α-MSH-ANT monomer, assay monomer lacking cysteine]			No significant dispersion	120 ± 6	did not stimulate dispersion
SYSMEHFRWGKPV-GGG-εAhx-K(20)-βAla [α-MSH monomer]		372 ± 18	stimulated dispersion in a time and dose-dependent manner		
